# Data reported in the supplement of paper PMC10307832.
# Experiments:
# Test in all cases: relative viability (nuclei count vs DMSO), 5 days (fraction); higher = more cells survive
# NCI-H460 = system: NCI-H460
# How it was run: (§1)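 Relative viability equals treated-well nuclei counts divided by vehicle-well nuclei counts. Counts came from 4× images of lung cancer cell lines grown in 1536-well plates for 5 days after pin-tool dosing on the day after seeding. Dosing used one drug alone or a fixed anchor-drug dose plus five library-drug doses (not always all listed) in √10 steps, and values are medians of duplicate plates.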
# NCI-H1793 = system: NCI-H1793
# How it was run: as §1
# SW 1573 = system: SW 1573
# How it was run: as §1
# NCI-H1944 = system: NCI-H1944
# How it was run: as §1
# PC-3 [JPC-3] = system: PC-3 [JPC-3]
# How it was run: as §1
# H3255 = system: H3255
# How it was run: as §1
# LCLC-97TM1 = system: LCLC-97TM1
# How it was run: as §1
# A-427 = system: A-427
# How it was run: as §1
# SW 900 = system: SW 900
# How it was run: as §1
# COR-L23 = system: COR-L23
# How it was run: as §1
# LCLC-103H = system: LCLC-103H
# How it was run: as §1
# 201T = system: 201T
# How it was run: as §1
# LU99A = system: LU99A
# How it was run: as §1
# NCI-H2347 = system: NCI-H2347
# How it was run: as §1
# NCI-H650 = system: NCI-H650
# How it was run: as §1
# PC-14 = system: PC-14
# How it was run: as §1
# NCI-H23 = system: NCI-H23
# How it was run: as §1
# RERF-LC-KJ = system: RERF-LC-KJ
# How it was run: as §1
# LK-2 = system: LK-2
# How it was run: as §1
# NCI-H727 = system: NCI-H727
# How it was run: as §1
# NCI-H1651 = system: NCI-H1651
# How it was run: as §1
# NCI-H1650 = system: NCI-H1650
# How it was run: as §1
# NCI-H838 = system: NCI-H838
# How it was run: as §1
smiles,measurement,setting,value
C[C@@H]1CN(CC(=O)Nc2ccc3c(c2)Cc2cccc(-c4cc(=O)cc(N5CCOCC5)o4)c2S3)C[C@H](C)O1 + O=C(c1cc(Cc2n[nH]c(=O)c3ccccc23)ccc1F)N1CCN(C(=O)C2CC2)CC1 [Olaparib] (partner 8 µM),relative viability,NCI-H460; first compound 0.04 µM,0.506
same,relative viability,NCI-H460; first compound 0.1265 µM,0.444
same,relative viability,NCI-H460; first compound 0.4 µM,0.502
same,relative viability,NCI-H460; first compound 4 µM,0.112
same,relative viability,NCI-H1793; first compound 0.04 µM,1.01
same,relative viability,NCI-H1793; first compound 0.1265 µM,0.784
same,relative viability,NCI-H1793; first compound 0.4 µM,0.86
same,relative viability,NCI-H1793; first compound 4 µM,0.255
same,relative viability,SW 1573; first compound 0.04 µM,0.553
same,relative viability,SW 1573; first compound 0.1265 µM,0.546
same,relative viability,SW 1573; first compound 0.4 µM,0.495
same,relative viability,SW 1573; first compound 4 µM,0.21
same,relative viability,NCI-H1944; first compound 0.1265 µM,0.371
same,relative viability,NCI-H1944; first compound 0.4 µM,0.386
same,relative viability,NCI-H1944; first compound 4 µM,0.321
same,relative viability,PC-3 [JPC-3]; first compound 0.04 µM,1.17
same,relative viability,PC-3 [JPC-3]; first compound 0.1265 µM,1.08
same,relative viability,PC-3 [JPC-3]; first compound 0.4 µM,1.16
same,relative viability,PC-3 [JPC-3]; first compound 4 µM,0.608
same,relative viability,H3255; first compound 0.04 µM,0.554
same,relative viability,H3255; first compound 0.1265 µM,0.532
same,relative viability,H3255; first compound 0.4 µM,0.522
same,relative viability,H3255; first compound 4 µM,0.452
same,relative viability,LCLC-97TM1; first compound 0.1265 µM,0.381
same,relative viability,LCLC-97TM1; first compound 0.4 µM,0.462
same,relative viability,LCLC-97TM1; first compound 4 µM,0.37
same,relative viability,A-427; first compound 0.04 µM,0.658
same,relative viability,A-427; first compound 0.1265 µM,0.734
same,relative viability,A-427; first compound 0.4 µM,0.731
same,relative viability,A-427; first compound 4 µM,0.669
same,relative viability,SW 900; first compound 0.04 µM,0.869
same,relative viability,SW 900; first compound 0.1265 µM,0.993
same,relative viability,SW 900; first compound 0.4 µM,0.815
same,relative viability,SW 900; first compound 4 µM,0.445
same,relative viability,COR-L23; first compound 0.04 µM,0.39
same,relative viability,COR-L23; first compound 0.1265 µM,0.329
same,relative viability,COR-L23; first compound 0.4 µM,0.323
same,relative viability,COR-L23; first compound 4 µM,0.185
same,relative viability,LCLC-103H; first compound 0.04 µM,0.71
same,relative viability,LCLC-103H; first compound 0.1265 µM,0.739
same,relative viability,LCLC-103H; first compound 0.4 µM,0.771
same,relative viability,LCLC-103H; first compound 4 µM,0.722
same,relative viability,201T; first compound 0.04 µM,0.839
same,relative viability,201T; first compound 0.1265 µM,0.816
same,relative viability,201T; first compound 0.4 µM,0.793
same,relative viability,201T; first compound 4 µM,0.783
same,relative viability,LU99A; first compound 0.04 µM,0.316
same,relative viability,LU99A; first compound 0.1265 µM,0.282
same,relative viability,LU99A; first compound 0.4 µM,0.259
same,relative viability,LU99A; first compound 4 µM,0.246
same,relative viability,NCI-H2347; first compound 0.04 µM,0.636
same,relative viability,NCI-H2347; first compound 0.1265 µM,0.545
same,relative viability,NCI-H2347; first compound 0.4 µM,0.57
same,relative viability,NCI-H2347; first compound 4 µM,0.448
same,relative viability,NCI-H650; first compound 0.04 µM,0.436
same,relative viability,NCI-H650; first compound 0.1265 µM,0.48
same,relative viability,NCI-H650; first compound 0.4 µM,0.438
same,relative viability,NCI-H650; first compound 4 µM,0.258
same,relative viability,PC-14; first compound 0.04 µM,0.249
same,relative viability,PC-14; first compound 0.1265 µM,0.169
same,relative viability,PC-14; first compound 0.4 µM,0.205
same,relative viability,PC-14; first compound 4 µM,0.09
same,relative viability,NCI-H23; first compound 0.04 µM,0.352
same,relative viability,NCI-H23; first compound 0.1265 µM,0.317
same,relative viability,NCI-H23; first compound 0.4 µM,0.264
same,relative viability,NCI-H23; first compound 4 µM,0.227
same,relative viability,RERF-LC-KJ; first compound 0.04 µM,0.917
same,relative viability,RERF-LC-KJ; first compound 0.1265 µM,0.984
same,relative viability,RERF-LC-KJ; first compound 0.4 µM,1.01
same,relative viability,RERF-LC-KJ; first compound 4 µM,0.323
same,relative viability,LK-2; first compound 0.04 µM,0.852
same,relative viability,LK-2; first compound 0.1265 µM,0.724
same,relative viability,LK-2; first compound 0.4 µM,0.575
same,relative viability,LK-2; first compound 4 µM,0.321
same,relative viability,NCI-H727; first compound 0.04 µM,0.831
same,relative viability,NCI-H727; first compound 0.1265 µM,0.77
same,relative viability,NCI-H727; first compound 0.4 µM,0.835
same,relative viability,NCI-H727; first compound 4 µM,0.64
same,relative viability,NCI-H1651; first compound 0.04 µM,0.173
same,relative viability,NCI-H1651; first compound 0.1265 µM,0.167
same,relative viability,NCI-H1651; first compound 0.4 µM,0.178
same,relative viability,NCI-H1651; first compound 4 µM,0.139
same,relative viability,NCI-H1650; first compound 0.04 µM,0.731
same,relative viability,NCI-H1650; first compound 0.1265 µM,0.713
same,relative viability,NCI-H1650; first compound 0.4 µM,0.967
same,relative viability,NCI-H1650; first compound 4 µM,0.282
same,relative viability,NCI-H838; first compound 0.04 µM,0.746
same,relative viability,NCI-H838; first compound 0.1265 µM,0.685
same,relative viability,NCI-H838; first compound 0.4 µM,0.739
same,relative viability,NCI-H838; first compound 4 µM,0.323
